Laboratory results reported in US6814953B2, “Bronchodilating compositions and methods” (Dey L.P., priority 2001, dated 2004).
Converted amounts (≈) assume the structure as drawn.

Assays:
[1] = Estimated shelf-life of formoterol in the compositions (Arrhenius kinetics); assay type: physicochemical; details: in the compositions provided herein
Description: (§1) Stability samples of the solutions prepared in EXAMPLES 1 and 2 were placed in scintillation vials with teflon-lined caps and stored in stability ovens at accelerated temperatures. At selected time points, aliquots of the samples were removed from the scintillation vials.

[2] = physchem
[3] = patients with reversible obstructive respiratory diseases; cited from earlier work
[4] = Decomposition kinetics of formoterol in aqueous solution (stability testing by HPLC at accelerated temperatures); assay type: physicochemical
Description: In the embodiments herein, the compositions have a pH of about 2.0 to about 8.0. In other embodiments, the compositions have a pH of about 4.0 to about 6.0, or about 4.5 to about 5.5. In certain of the above embodiments, the compositions are formulated at a pH of about 4, 4.4 or 4.6 up to about 5.5, 5.7 or 6. In other embodiments, the pH is about 5.0.
In other of the above embodiments, the compositions further contain a buffer, including, but not limited to, citric acid/phosphate, acetate, barbital, borate, Britton-Robinson, cacodylate, citrate, collidine, formate, maleate, Mcllvaine, phosphate, Prideaux-Ward, succinate, citrate-phosphate-borate (Teorell-Stanhagen), veronal acetate, MES (2-(N-morpholino)ethanesulfonic acid), BIS-TRIS (bis(2-hydroxyethyl)iminotris(hydroxymethyl)methane), ADA (N-(2-acetamido)-2-iminodiacetic acid), ACES (N-(carbamoylmethyl)-2-aminoethanesulfonic acid), PIPES (piperazirie-N,N′-bis(2-ethanesulfonic acid)), MOPSO (3-(N-morpholino)-2-hydroxypropanesulfonic acid), BIS-TRIS PROPANE (1,3-bis(tris(hydroxymethyl)methylamino)propane), BES (N,N-bis(2-hydroxyethyl)-2-aminoethanesulfonic acid), MOPS (3-(N-morpholino)propanesulfonic acid), TES (N-tris(hydroxymethyl)methyl-2-aminoethanesulfonic acid), HEPES (N-(2-hydroxyethyl)piperazine-N′-(2-ethanesulfonic acid), DIPSO (3-(N,N-bis(2-hydroxyethyl)amino)-2-hydroxypropanesulfonic acid), MOBS (4-(N-morpholino)butanesulfonic acid), TAPSO (3-(N-tris(hydroxymethyl)methylamino)-2-hydroxypropanesulfonic acid), TRIZMAO (tris(hydroxymethylaminomethane), HEPPSO (N-(2-hydroxyethyl)piperazine-N′-(2-hydroxypropanesulfonic acid), POPSO (piperazine-N,N′-bis(2-hydroxypropanesulfonic acid)), TEA (triethanolamine), EPPS (N-(2-hydroxyethyl)piperazine-N′-(3-propanesulfonic acid), TRICINE (N-tris(hydroxymethyl)methylglycine), GLY-GLY (glycylglycine), BICINE (N;N-bis(2-hydroxyethyl)glycine), HEPBS (N-(2-hydroxyethyl)piperazine-N′-(4-butanesulfonic acid)), TAPS (N-tris(hydroxymethyl)methyl-3-aminopropanesulfonic acid), AMPD (2-amino-2-methyl-1,3-propanediol), and/or any other buffers known to those of skill in the art. In one embodiment, the buffer is citric acid/phosphate buffer, acetate buffer, citrate buffer or phosphate buffer. In another embodiment, the buffer is a citrate buffer (citric acid/sodium citrate). […] Buffer concentrations for use herein include from about 0 or 0.01 mM to about 150 mM, or about 1 mM to about 20 mM. In one embodiment, the buffer concentration is about 5 mM. In another embodiment, the buffer concentration is about 1 mM to about 50 mM, or about 20 mM. […] The particular buffer and buffer concentration of a given composition for long term storage provided herein may be determined empirically using standard stability assays well known to those of skill in the art (see, e.g., the Examples).
The solutions were stored at 60° C.
as §1

COc1ccc(CC(C)NCC(O)c2ccc(O)c(NC=O)c2)cc1 (racemic) [formoterol, 2-hydroxy-5-((1RS)-1-hydroxy-2-(((1RS)-2-(p-methoxyphenyl)-1-methylethyl)amino)ethyl)formanilide]
estimated shelf-life ([1]; 5° C.): about 6.2 years | estimated shelf-life ([1]; 25° C.): about 7.5 months | solubility ([2]; aqueous buffer): ~2200 µg/mL (≈ 6.39 mM) | solubility ([2]; pH 3, aqueous buffer): ~4800 µg/mL (≈ 13.9 mM) | solubility ([2]; pH 4, aqueous buffer): ~3000 µg/mL (≈ 8.71 mM) | solubility ([2]; water): ~2000 µg/mL (≈ 5.81 mM) | duration of bronchodilatory effect [3]: greater than 12 hours | onset of bronchodilatory effect [3]: 1 to 3 min | pH at which decomposition in aqueous solution is slowest ([4]; 60° C., buffer concentration 5 mM, ionic strength 0.05): about 5.0 | rate constant (kobs) for decomposition of an aqueous solution ([4]; 60° C., pH 3, buffer concentration 5 mM, ionic strength 0.05): approximately 0.62 day^−1 | rate constant (kobs) for decomposition of an aqueous solution ([4]; 60° C., pH 4, buffer concentration 5 mM, ionic strength 0.05): ~0.11 day⁻¹ | rate constant (kobs) for decomposition of an aqueous solution ([4]; 60° C., pH 5, buffer concentration 5 mM, ionic strength 0.05): ~0.044 day⁻¹ | rate constant (kobs) for decomposition of an aqueous solution ([4]; 60° C., pH 7, buffer concentration 5 mM, ionic strength 0.05): ~0.55 day⁻¹ | effect of increasing buffer concentration from 5 mM to 20 mM on rate constant of decomposition ([4]; low and approximately neutral conditions (pH)): increased the rate constant of decomposition significantly | effect of increasing buffer concentration from 5 mM to 20 mM on rate constant of decomposition ([4]; pH region of about 4.5 to about 5.5): no noticeable differences in rate constant
